Measurements from paper PMC9090415, “Discovery of small molecule inhibitors of Plasmodium falciparum apicoplast DNA polymerase” (Journal of Enzyme Inhibition and Medicinal Chemistry, 2022).

Biological target: P. falciparum apicoplast DNA polymerase (Pf-apPOL) (Plasmodium falciparum, UniProt Q8ILY1)
Assay: Fluorescence-based high-throughput DNA polymerase assay (molecular beacon), primary screen and dose-response;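 as to % inhibition ApPOL 90': test concentration in µM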;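 as to % inhibition apPOL 180': test concentration in µM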
Type: biochemical
Procedure, shortened: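 Single-point screening used 10 µM compound with 20 nM polymerase, 20 nM hairpin substrate and 6 µM dNTPs for 90 min at 25 °C. Confirmatory titrations (2.5–80 µM) followed fluorescence at three times, and IC50 was derived from a fit including a cooperativity term n.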

[1] = primary screen value of the 186 hits; unit not given; 90 min, 10 µM
[2] = supplemental file 2, sheet IC50 nontoxic compounds; Pf-apPOL

Chain of P. falciparum apicoplast DNA polymerase (Pf-apPOL) (Q8ILY1 entry or part of it): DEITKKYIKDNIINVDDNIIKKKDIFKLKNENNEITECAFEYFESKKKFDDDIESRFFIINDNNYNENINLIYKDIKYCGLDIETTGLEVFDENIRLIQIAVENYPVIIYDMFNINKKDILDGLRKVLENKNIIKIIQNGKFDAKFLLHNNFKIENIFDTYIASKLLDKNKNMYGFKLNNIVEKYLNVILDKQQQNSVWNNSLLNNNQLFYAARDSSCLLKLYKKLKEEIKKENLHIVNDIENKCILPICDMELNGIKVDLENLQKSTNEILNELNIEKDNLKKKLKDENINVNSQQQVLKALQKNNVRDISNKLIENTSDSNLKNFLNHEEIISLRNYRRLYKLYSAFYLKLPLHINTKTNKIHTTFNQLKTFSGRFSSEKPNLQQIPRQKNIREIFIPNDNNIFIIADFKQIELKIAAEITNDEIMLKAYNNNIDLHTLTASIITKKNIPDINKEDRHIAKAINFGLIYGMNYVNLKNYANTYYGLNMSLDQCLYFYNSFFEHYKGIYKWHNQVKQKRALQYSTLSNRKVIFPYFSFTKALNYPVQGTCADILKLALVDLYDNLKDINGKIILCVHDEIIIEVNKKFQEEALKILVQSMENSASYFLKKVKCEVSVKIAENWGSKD

COc1ccc(C)cc1NC(=O)Cn1ccc2c(=O)[nH]ccc21 [Molecule 15, COc1ccc(cc1NC(=O)Cn1ccc2c1cc[nH]c2=O)C]
% inhibition Apo pol 10' (DRC-1; 10'; concentration 2.5): 1.7584% | % inhibition Apo pol 10' (DRC-1; 10'; concentration 5): 31.9729% | % inhibition Apo pol 10' (DRC-1; 10'; concentration 10): 59.9251% | % inhibition Apo pol 10' (DRC-1; 10'; concentration 20): 81.9832% | % inhibition Apo pol 10' (DRC-1; 10'; concentration 40): 82.3162% | % inhibition Apo pol 10' (DRC-1; 10'; concentration 80): 74.4719% | % inhibition Apol 90' (DRC-1; 90'; concentration 2.5): -2.786% | % inhibition Apol 90' (DRC-1; 90'; concentration 5): 18.8368% | % inhibition Apol 90' (DRC-1; 90'; concentration 10): 46.9508% | % inhibition Apol 90' (DRC-1; 90'; concentration 20): 77.5716% | % inhibition Apol 90' (DRC-1; 90'; concentration 40): 84.7552% | % inhibition Apol 90' (DRC-1; 90'; concentration 80): 84.8173% | % inhibition apPOL 180' (DRC-1; 180'; concentration 2.5): -5.413% | % inhibition apPOL 180' (DRC-1; 180'; concentration 5): 6.847% | % inhibition apPOL 180' (DRC-1; 180'; concentration 10): 30.4146% | % inhibition apPOL 180' (DRC-1; 180'; concentration 20): 67.1672% | % inhibition apPOL 180' (DRC-1; 180'; concentration 40): 81.3984% | % inhibition apPOL 180' (DRC-1; 180'; concentration 80): 86.595% | % inhibition Apo pol 5' (DRC-2; 5'; concentration 2.5): 1.82% | % inhibition Apo pol 5' (DRC-2; 5'; concentration 5): 24% | % inhibition Apo pol 5' (DRC-2; 5'; concentration 10): 47% | % inhibition Apo pol 5' (DRC-2; 5'; concentration 20): 44% | % inhibition Apo pol 5' (DRC-2; 5'; concentration 40): 34% | % inhibition Apo pol 5' (DRC-2; 5'; concentration 80): 8% | % inhibition Apol 40' (DRC-2; 40'; concentration 2.5): 0.779% | % inhibition Apol 40' (DRC-2; 40'; concentration 5): 28% | % inhibition Apol 40' (DRC-2; 40'; concentration 10): 63% | % inhibition Apol 40' (DRC-2; 40'; concentration 20): 65% | % inhibition Apol 40' (DRC-2; 40'; concentration 40): 60% | % inhibition Apol 40' (DRC-2; 40'; concentration 80): 46% | % inhibition ApPOL 90' (DRC-2; 90'; concentration 2.5): -0.827% | % inhibition ApPOL 90' (DRC-2; 90'; concentration 5): 24% | % inhibition ApPOL 90' (DRC-2; 90'; concentration 10): 64% | % inhibition ApPOL 90' (DRC-2; 90'; concentration 20): 67% | % inhibition ApPOL 90' (DRC-2; 90'; concentration 40): 66% | % inhibition ApPOL 90' (DRC-2; 90'; concentration 80): 55% | % inhibition apPOL 180' (DRC-2; 180'; concentration 2.5): -8% | % inhibition apPOL 180' (DRC-2; 180'; concentration 5): 12% | % inhibition apPOL 180' (DRC-2; 180'; concentration 10): 58% | % inhibition apPOL 180' (DRC-2; 180'; concentration 20): 66% | % inhibition apPOL 180' (DRC-2; 180'; concentration 40): 72% | % inhibition apPOL 180' (DRC-2; 180'; concentration 80): 64% | % inhibition Apo pol 5' (conc. 5; 5'; DRC-2): 24% | % inhibition ApPOL 90' (conc. 5; 90'; DRC-2): 24% | % inhibition ApPOL 90' (conc. 10; 90'; DRC-2): 64% | % inhibition apPOL 180' (conc. 20; 180'; DRC-2): 66% | % inhibition ApPOL 90' (conc. 40; 90'; DRC-2): 66% | % inhibition apPOL 180' (conc. 80; 180'; DRC-2): 64% | DNA Pol (primary screen value by plate and well; 90 min, 10 µM): 73 | DNA Pol [1]: 73

Cc1ccnc(NS(=O)(=O)c2ccc(-n3cccc3)cc2)n1 [KU0034899]
% inhibition Apo pol 10' (DRC-1; concentration 2.5; 10'): 6.567% | % inhibition Apol 90' (DRC-1; concentration 2.5; 90'): 1.285% | % inhibition apPOL 180' (DRC-1; concentration 2.5; 180'): -4.513% | % inhibition Apo pol 10' (DRC-1; concentration 5; 10'): 25.8281% | % inhibition Apol 90' (DRC-1; concentration 5; 90'): 11.3898% | % inhibition apPOL 180' (DRC-1; concentration 5; 180'): 1.685% | % inhibition Apo pol 10' (DRC-1; concentration 10; 10'): 43.5691% | % inhibition Apol 90' (DRC-1; concentration 10; 90'): 23.2373% | % inhibition apPOL 180' (DRC-1; concentration 10; 180'): 9.9045% | % inhibition Apo pol 10' (DRC-1; concentration 20; 10'): 72.9985% | % inhibition Apol 90' (DRC-1; concentration 20; 90'): 50.5873% | % inhibition apPOL 180' (DRC-1; concentration 20; 180'): 29.9217% | % inhibition Apo pol 10' (DRC-1; concentration 40; 10'): 90.805% | % inhibition Apol 90' (DRC-1; concentration 40; 90'): 80.4805% | % inhibition apPOL 180' (DRC-1; concentration 40; 180'): 67.6388% | % inhibition Apo pol 10' (DRC-1; concentration 80 (unit not given); 10'): 93.2113% | % inhibition Apol 90' (DRC-1; concentration 80; 90'): 92.1996% | % inhibition apPOL 180' (DRC-1; concentration 80; 180'): 89.3134% | % inhibition Apol 40' (DRC-2; 40'; concentration 80): 59% | % inhibition ApPOL 90' (DRC-2; 90'; concentration 20): 59% | % inhibition Apo pol 5' (DRC-2; concentration 2.5; 5'): 26% | % inhibition Apol 40' (DRC-2; concentration 2.5; 40'): 31% | % inhibition ApPOL 90' (DRC-2; concentration 2.5; 90'): 29% | % inhibition apPOL 180' (DRC-2; concentration 2.5; 180'): 19% | % inhibition Apo pol 5' (DRC-2; concentration 5; 5'): 23% | % inhibition Apol 40' (DRC-2; concentration 5; 40'): 20% | % inhibition ApPOL 90' (DRC-2; concentration 5; 90'): 14% | % inhibition apPOL 180' (DRC-2; concentration 5; 180'): 0.78% | % inhibition Apo pol 5' (DRC-2; concentration 10; 5'): 41% | % inhibition Apol 40' (DRC-2; concentration 10; 40'): 42% | % inhibition ApPOL 90' (DRC-2; concentration 10; 90'): 37% | % inhibition apPOL 180' (DRC-2; concentration 10; 180'): 21% | % inhibition Apo pol 5' (DRC-2; concentration 20; 5'): 49% | % inhibition Apol 40' (DRC-2; concentration 20; 40'): 62% | % inhibition ApPOL 90' (DRC-2; concentration 20; 90'): 59% | % inhibition apPOL 180' (DRC-2; concentration 20; 180'): 48% | % inhibition Apo pol 5' (DRC-2; concentration 40; 5'): 52% | % inhibition Apol 40' (DRC-2; concentration 40; 40'): 73% | % inhibition ApPOL 90' (DRC-2; concentration 40; 90'): 75% | % inhibition apPOL 180' (DRC-2; concentration 40; 180'): 74% | % inhibition Apo pol 5' (DRC-2; concentration 80; 5'): 17% | % inhibition Apol 40' (DRC-2; concentration 80; 40'): 59% | % inhibition ApPOL 90' (DRC-2; concentration 80; 90'): 67% | % inhibition apPOL 180' (DRC-2; concentration 80; 180'): 76% | DNA Pol [1]: 40 | DNA Pol (primary screen value; head prints only 'DNA Pol'; 90 min, 10 µM): 40

CC1=NNC(=O)C1Oc1ccc(Cl)cc1Cl (stereo not drawn) [KU0265591]
DNA Pol ('DNA Pol'; screening value, unit not given; 90 min, 10 µM): 75 | % inhibition Apo pol 10' (DRC-1; 10'; concentration 2.5): 8.365% | % inhibition Apo pol 10' (DRC-1; 10'; concentration 5): 10.5259% | % inhibition Apo pol 10' (DRC-1; 10'; concentration 10): 21.6096% | % inhibition Apo pol 10' (DRC-1; 10'; concentration 20): 39.4478% | % inhibition Apo pol 10' (DRC-1; 10'; concentration 40): 60.3328% | % inhibition Apo pol 10' (DRC-1; 10'; concentration 80): 74.8276% | % inhibition Apol 90' (DRC-1; 90'; concentration 2.5): -1.52% | % inhibition Apol 90' (DRC-1; 90'; concentration 5): -3.728% | % inhibition Apol 90' (DRC-1; 90'; concentration 10): 5.588% | % inhibition Apol 90' (DRC-1; 90'; concentration 20): 19.9514% | % inhibition Apol 90' (DRC-1; 90'; concentration 40): 37.9721% | % inhibition Apol 90' (DRC-1; 90'; concentration 80): 53.1645% | % inhibition apPOL 180' (DRC-1; 180'; concentration 2.5): -5.173% | % inhibition apPOL 180' (DRC-1; 180'; concentration 5): -9.633% | % inhibition apPOL 180' (DRC-1; 180'; concentration 10): -1.598% | % inhibition apPOL 180' (DRC-1; 180'; concentration 20): 9.166% | % inhibition apPOL 180' (DRC-1; 180'; concentration 40): 27.6068% | % inhibition apPOL 180' (DRC-1; 180'; concentration 80): 41.8944% | % inhibition Apo pol 5' (DRC-2, 5', concentration 2.5): 10% | % inhibition Apo pol 5' (DRC-2, 5', concentration 5): 12% | % inhibition Apo pol 5' (DRC-2, 5', concentration 10): 24% | % inhibition Apo pol 5' (DRC-2, 5', concentration 20): 32% | % inhibition Apo pol 5' (DRC-2, 5', concentration 40): 45% | % inhibition Apo pol 5' (DRC-2, 5', concentration 80): 52% | % inhibition Apol 40' (DRC-2, 40', concentration 2.5): 5% | % inhibition Apol 40' (DRC-2, 40', concentration 5): 4.74% | % inhibition Apol 40' (DRC-2, 40', concentration 10): 15% | % inhibition Apol 40' (DRC-2, 40', concentration 20): 26% | % inhibition Apol 40' (DRC-2, 40', concentration 40): 42% | % inhibition Apol 40' (DRC-2, 40', concentration 80): 53% | % inhibition ApPOL 90' (DRC-2, 90', concentration 2.5): 1.69% | % inhibition ApPOL 90' (DRC-2, 90', concentration 5): -0.164% | % inhibition ApPOL 90' (DRC-2, 90', concentration 10): 9% | % inhibition ApPOL 90' (DRC-2, 90', concentration 20): 20% | % inhibition ApPOL 90' (DRC-2, 90', concentration 40): 37% | % inhibition ApPOL 90' (DRC-2, 90', concentration 80): 51% | % inhibition apPOL 180' (DRC-2, 180', concentration 2.5): -3.43% | % inhibition apPOL 180' (DRC-2, 180', concentration 5): -6% | % inhibition apPOL 180' (DRC-2, 180', concentration 10): -1.09% | % inhibition apPOL 180' (DRC-2, 180', concentration 20): 9% | % inhibition apPOL 180' (DRC-2, 180', concentration 40): 26% | % inhibition apPOL 180' (DRC-2, 180', concentration 80): 42% | % inhibition ApPOL 90' (conc 10 (unit not given); 90'; DRC-2): 9% | % inhibition Apol 40' (conc 20 (unit not given); 40'; DRC-2): 26% | % inhibition apPOL 180' (conc 20 (unit not given); 180'; DRC-2): 9% | % inhibition Apol 40' (conc 40 (unit not given); 40'; DRC-2): 42% | % inhibition apPOL 180' (conc 40 (unit not given); 180'; DRC-2): 26% | % inhibition apPOL 180' (conc 80 (unit not given); 180'; DRC-2): 42% | DNA Pol (primary screen hit value, DNA Pol (186 hits); 90 min, 10 µM): 75

CCCCc1ccc(NC(=O)CSc2nc(O)c(C#N)c(C3CCCCC3)n2)c(C)c1 [Molecule 8]
IC50 [2]: 8.77 µM

O=C(Nc1nnc(-c2ccno2)o1)c1ccc2ncsc2c1 [Molecule 62]
IC50 [2]: 14.2 µM

O=C(Cc1cccs1)N1CCN(c2nc(CN3CCOCC3)cs2)CC1 [Molecule 35]
IC50 [2]: 11.2 µM

Cc1ccc(CNC(=O)c2cnn3c(O)cc(CSc4ccc(Cl)cc4)nc23)cc1 [Molecule 99]
IC50 [2]: 9.14 µM
